One substance from US11826399B2, “Chlorotoxin agents and uses thereof” (Eisai Inc., priority 2017, dated 2023) can be followed below.

This assay has as its system PC-3 human prostate cancer cells. Put plainly: Co-administration of Cryptophycin Payload with CTX or iRGD in subcutaneous PC-3 xenograft model. Conditions: iRGD + Cryptophycin Payload 0.2 mg/kg (data not shown). The format is in vivo, mouse.

As for “iRGD: tumor-penetrating peptide iRGD (CRGDK/RGPD/EC) (SEQ ID NO: 202)”, the “Effect of co-administration on tumor re-growth versus Cryptophycin Payload alone” value was “re-growth of tumors was not shown to be significantly different”.
